In patent publication US20240270821A1, “GIP/GLP1/GCG TRI-RECEPTOR AGONISTS AND USES THEREOF” (priority 2023, published 2024):
pEC50: −log10 of the molar value. Like-named read-outs stand apart in the source and are kept apart here. Starred links: 1 amine or outer side, 2 acyl side, 3 side chain; linkers in the order of their positions; H or OH if unused. Non-standard residues stand in square brackets, D forms with d. Groups on a side chain read outwards from the residue. No end group written: not given here. *: point of attachment. C20 diacid = O=C(O)CCCCCCCCCCCCCCCCCCC(=O)*; C18 diacid = O=C(O)CCCCCCCCCCCCCCCCC(=O)*; αMePhe(2-F) = C[C@](N)(Cc1ccccc1F)C(=O)O; γGlu = O=C(O)[C@H](CCC(=O)[*:2])N[*:1]; αMe4Pal = C[C@](N)(Cc1ccncc1)C(=O)O; αMeY = C[C@](N)(Cc1ccc(O)cc1)C(=O)O; 4Pal = N[C@@H](Cc1ccncc1)C(=O)O; αMeL = CC(C)C[C@](C)(N)C(=O)O; αMeS = C[C@](N)(CO)C(=O)O; Orn = NCCC[C@H](N)C(=O)O; AEEA = NCCOCCOCC(=O)O; Aib = CC(C)(N)C(=O)O

Legend:
Format in all cases: cell-based
hGcgR = hGcgR (Homo sapiens, UniProt P47871); assay: Functional cAMP activation in the presence of 0.1% casein (no HSA); settings: read-out: Relative cAMP EC50, hGcgR;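 further: intracellular cAMP rise after 30 min at 37 °C, read by HTRF against a cAMP standard curve, scaled from buffer only (0%) to maximal control ligand response (100%)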
hGLP-1R [1] = target: T1, hGLP-1R (Homo sapiens, UniProt P43220); assay: Functional cAMP activity in the presence of 1% HSA; settings: read-out: cAMP Rel EC50, hGLP-1R
hGIPR [2] = target: T2, hGIPR (Homo sapiens, UniProt P48546); assay: Functional cAMP activity in the presence of 1% HSA; settings: read-out: cAMP Rel EC50, hGIPR
T2 sequence (P48546 22-466): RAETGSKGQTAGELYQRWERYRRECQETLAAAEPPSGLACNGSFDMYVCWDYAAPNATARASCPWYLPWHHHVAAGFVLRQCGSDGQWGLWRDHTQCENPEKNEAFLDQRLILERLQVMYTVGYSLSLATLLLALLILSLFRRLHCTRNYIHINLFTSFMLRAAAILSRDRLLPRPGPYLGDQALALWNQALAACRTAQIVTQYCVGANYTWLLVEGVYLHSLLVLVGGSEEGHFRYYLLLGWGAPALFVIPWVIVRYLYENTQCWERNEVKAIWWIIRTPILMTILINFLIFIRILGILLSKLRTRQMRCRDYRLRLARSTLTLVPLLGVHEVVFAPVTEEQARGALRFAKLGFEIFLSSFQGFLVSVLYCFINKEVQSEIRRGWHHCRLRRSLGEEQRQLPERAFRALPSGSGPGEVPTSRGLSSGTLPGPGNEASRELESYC

hGLP-1R [3] = target: T1, hGLP-1R; assay: Functional cAMP activation in the presence of 0.1% casein (no HSA); settings: read-out: Relative cAMP EC50, hGLP-1R;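 on Relative cAMP EC50, hGIPR: intracellular cAMP rise after 30 min at 37 °C read by HTRF against a standard curve, scaled between buffer alone (0%) and top control ligand concentration (100%), four-parameter fit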;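 on Relative cAMP EC50, hGLP-1R: intracellular cAMP rise after 30 min at 37 °C read by HTRF, normalized between buffer only (0%) and maximal control ligand (100%), four-parameter variable-slope fit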
human GcgR = human GcgR (Homo sapiens, UniProt P47871); assay: Functional cAMP activity in the presence of 1% HSA; settings: read-out: cAMP Rel EC50, hGcgR
hGIPR [4] = target: T2, hGIPR; assay: Functional cAMP activation in the presence of 0.1% casein (no HSA); settings: read-out: Relative cAMP EC50, hGIPR;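 on Relative cAMP EC50, hGIPR: intracellular cAMP rise after 30 min at 37 °C read by HTRF against a standard curve, scaled between buffer alone (0%) and top control ligand concentration (100%), four-parameter fit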;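 on Relative cAMP EC50, hGLP-1R: intracellular cAMP rise after 30 min at 37 °C read by HTRF, normalized between buffer only (0%) and maximal control ligand (100%), four-parameter variable-slope fit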
[5] = in the presence of 0.1% casein (no HSA), geometric mean

T1 sequence (P43220 24-463): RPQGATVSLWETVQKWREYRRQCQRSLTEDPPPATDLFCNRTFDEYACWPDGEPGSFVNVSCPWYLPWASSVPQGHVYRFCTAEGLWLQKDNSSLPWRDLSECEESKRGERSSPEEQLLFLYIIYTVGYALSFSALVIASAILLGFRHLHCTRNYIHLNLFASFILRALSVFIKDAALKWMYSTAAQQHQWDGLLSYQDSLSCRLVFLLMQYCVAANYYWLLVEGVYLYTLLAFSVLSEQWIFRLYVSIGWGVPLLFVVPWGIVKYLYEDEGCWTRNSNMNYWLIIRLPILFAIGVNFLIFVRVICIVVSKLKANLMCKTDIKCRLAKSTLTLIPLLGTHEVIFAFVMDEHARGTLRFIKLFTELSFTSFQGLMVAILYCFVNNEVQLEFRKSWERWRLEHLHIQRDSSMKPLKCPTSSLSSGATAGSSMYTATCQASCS
Chain of hGcgR (P47871 26-477): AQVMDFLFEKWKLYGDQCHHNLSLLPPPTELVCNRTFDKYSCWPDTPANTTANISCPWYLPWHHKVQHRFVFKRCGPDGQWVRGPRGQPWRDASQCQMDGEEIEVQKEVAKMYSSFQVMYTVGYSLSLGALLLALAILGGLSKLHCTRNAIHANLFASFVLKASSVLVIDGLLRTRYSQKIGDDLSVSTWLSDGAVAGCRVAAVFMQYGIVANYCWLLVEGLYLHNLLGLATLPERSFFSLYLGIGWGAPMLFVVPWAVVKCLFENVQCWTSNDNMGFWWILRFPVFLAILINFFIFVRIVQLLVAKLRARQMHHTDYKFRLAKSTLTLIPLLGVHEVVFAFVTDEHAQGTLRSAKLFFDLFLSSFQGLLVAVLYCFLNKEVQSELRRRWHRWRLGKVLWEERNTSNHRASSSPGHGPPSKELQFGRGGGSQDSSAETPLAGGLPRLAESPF
Chain of human GcgR (P47871 26-477): as above

| Substance | pEC50 (hGcgR; [5]) | pEC50 (hGLP-1R [1]) | pEC50 (hGIPR [2]) | pEC50 (hGLP-1R [3]; [5]) | pEC50 (human GcgR) | pEC50 (hGIPR [4]; [5]) | pEC50 (hGcgR) | pEC50 (hGLP-1R [3]) | pEC50 (hGIPR [4]) |
| --- | --- | --- | --- | --- | --- | --- | --- | --- | --- |
| H-Y[Aib]QGTFTSD[4Pal]S[Orn][αMeL]LDKK([γGlu-γGlu-C18 diacid])AQ[αMe4Pal]AFIEYLIAGGPSSGAPPPSGSE-NH2 [Example 1009] | 8.38 | 6.76 | 8.01 | 8.68 | 6.57 | 9.89 |  |  |  |
| H-Y[Aib]QGT[αMePhe(2-F)]TSD[4Pal][αMeS]I[αMeL]LD[Orn]K([γGlu-γGlu-C18 diacid])AQ[Aib]NFI[dE][αMeY]LQEGGPSSGEPPPEGTGE-NH2 [Example 527] |  | 7.57 | 8.59 |  | 6.24 |  | 8.16 | 9.35 | 10.41 |
| Y[Aib]QGTFTSD[4Pal]SQ[αMeL]LD[Orn]K([AEEA-γGlu-γGlu-C18 diacid])AQ[αMe4Pal]AFIEYLIE[dA]GPSSGAPPPSGS-NH2 [Example 1016] | 8.25 | 6.81 | 7.51 | 8.81 | 6.20 | 9.66 |  |  |  |
| H-Y[Aib]QGT[αMePhe(2-F)]TSD[4Pal][αMeS]I[αMeL]LD[Orn]K([AEEA-AEEA-γGlu-C18 diacid])AQ[Aib][Orn]FIEYLIEGGPSSGAPEPSEG-NH2 [Example 492] |  | 8.01 | 9.08 |  | 6.89 |  | 8.87 | 9.84 | 10.92 |
| H-Y[Aib]QGT[αMePhe(2-F)]TSD[4Pal]SI[αMeL]LD[Orn]K([AEEA-γGlu-C18 diacid])AQ[αMe4Pal]EFI[dE][αMeY]LQEGGPSSGAPPPSGS-NH2 [Example 643] |  | 7.22 | 8.79 |  | 5.93 |  | 7.80 | 9.13 | 10.65 |
| H-Y[Aib]QGTFTSD[4Pal]SQ[αMeL]LD[Orn]K([dE-γGlu-C18 diacid])AQ[αMe4Pal]QFIQ[αMeY]LIE[Aib]GPSSGEPPPSGGGE-NH2 [Example 1129] | 8.21 | 7.25 | 8.38 | 9.30 | 6.10 | 10.32 |  |  |  |

The next lines start with the values.

| pEC50 (hGcgR; [5]) | pEC50 (hGLP-1R [1]) | pEC50 (hGIPR [2]) | pEC50 (hGLP-1R [3]; [5]) | pEC50 (human GcgR) | pEC50 (hGIPR [4]; [5]) | pEC50 (hGcgR) | pEC50 (hGLP-1R [3]) | pEC50 (hGIPR [4]) | Substance |
| --- | --- | --- | --- | --- | --- | --- | --- | --- | --- |
| 8.33 | 6.61 | 8.20 | 8.76 | 6.08 | 10.23 |  |  |  | Y[Aib]QGTFTSD[4Pal]SQ[αMeL]LD[Orn]K([dE-γGlu-C18 diacid])AQ[αMe4Pal]AFIEYLIA[Aib]GPSSGEPPPSGSEE-NH2 [Example 1101] |
|  | 7.58 | 8.69 |  | 6.63 |  | 8.40 | 9.28 | 10.29 | Y[Aib]QGT[αMePhe(2-F)]TSD[4Pal][αMeS]I[αMeL]LD[Orn]K([γGlu-γGlu-C18 diacid])AQ[Aib][Orn]FI[dE][αMeY]LQEGGPSSGEPPPEGTE-NH2 [Example 503] |
| 8.91 | 7.09 | 8.56 | 9.10 | 6.76 | 10.50 |  |  |  | H-Y[Aib]QGTFTSD[4Pal][αMeS]Q[αMeL]LD[Orn]K([dE-γGlu-C18 diacid])AQ[αMe4Pal]QFIE[αMeY]LIA[Aib]GPSSGEPPPSGGGE-NH2 [Example 1182] |
| 8.15 | 6.74 | 7.44 | 9.15 | 5.85 | 9.58 |  |  |  | H-Y[Aib]QGTFTSDYSI[αMeL]LDKQAAK([AEEA-AEEA-γGlu-C20 diacid])QFVEWLIA[Aib]GPSSGEPPPGEG-NH2 [Example 333] |
